# Source: patent publication US12667565B2, “Use of composition for enhancing anticancer effect, comprising ERRy inhibitor as active ingredient” (NOVMETAPHARMA CO., LTD., priority 2019, dated 2026)
# Columns and labels:
# [1] = system: Huh7-SR cell line; test: ROS generation measured by FACS with H2-DCF-DA; assay type: cell-based; settings: DN200434 12 μM and sorafenib 10 μM, 24 hours, FIG. 3A
# Experimental: (§1) The present inventors have performed experiments using sorafenib-resistant liver cancer cell lines (Huh7-SR and SK-Hep-R cell lines) and a liver cancer cell line-derived animal model (xenograft). To determine an effect of the synthetic compound DN200434, which is an inverse agonist against ERRγ, on the proliferation of liver cancer cells and ROS generation, ROS was measured using a cell count and 2′,7-dichlorofluorescin diacetate (DCF-DA). […]
# (§2) In order to investigate an effect of the compound (DN200434) represented by Formula 1, which is an inverse agonist against ERRγ, on ROS generation in sorafenib-resistant liver cancer cells, the effect was measured by FACS using 2′,7′-dichlorohydrofluorescein diacetate (H2-DCF-DA; Invitrogen, USA) as an ROS probe. […] Then, the cells were incubated for 30 minutes, and washed with PBS, and data was collected using a BD Accuri™ C6 flow cytometer (BD Bioscience, USA), and analyzed using an Accuri™ C6 analysis program (BD Bioscience, USA). To determine the number of cells, the sorafenib-resistant liver cancer cell line was treated with the DN200434 compound (12 μM) in combination with sorafenib (10 μM), and stained with trypan blue, and the number of cells was then measured using a hemocytometer.
# [2] = system: SK-Hep-R cell line; test: ROS generation measured by FACS with H2-DCF-DA; assay type: cell-based; settings: DN200434 12 μM and sorafenib 10 μM, 24 hours, FIG. 3B
# Experimental: as §1, §2
# [3] = system: sorafenib-resistant liver cancer cell line Huh7-R; test: Sorafenib-resistant liver cancer animal model (xenograft); assay type: in vivo, mice
# Experimental: (§3) The present inventors have performed experiments using sorafenib-resistant liver cancer cell lines (Huh7-SR and SK-Hep-R cell lines) and a liver cancer cell line-derived animal model (xenograft). To determine an effect of the synthetic compound DN200434, which is an inverse agonist against ERRγ, on the proliferation of liver cancer cells and ROS generation, ROS was measured using a cell count and 2′,7-dichlorofluorescin diacetate (DCF-DA). Finally, after a sorafenib-resistant liver cancer cell line was injected into […] to induce the formation of sorafenib-resistant liver cancer, changes in size of liver cancer were confirmed in the group injected with the inverse agonist against ERRγ (DN200434) and sorafenib and the group injected with the control drug.
# (§4) The sorafenib-resistant liver cancer cell line Huh7-R was injected into mice in order to construct a sorafenib-resistant liver cancer animal model (xenograft). Thereafter, the inverse agonist against ERRγ (e.g., DN200434 (Formula 1)) was administered in combination with sorafenib, and the size change of the formed mass was measured. In this case, the group in which the sorafenib-resistant liver cancer-derived animal model was treated with sorafenib alone was used as the comparative control.
# [4] = system: SK-Hep-R sorafenib-resistant liver cancer cell line; test: Cell proliferation (trypan blue cell count, hemocytometer); assay type: cell-based; settings: FIG. 4B
# Experimental: as §3
# (§5) In order to investigate an effect of the compound (DN200434) represented by Formula 1, which is an inverse agonist against ERRγ, on ROS generation in sorafenib-resistant liver cancer cells, the effect was measured by FACS using 2′,7′-dichlorohydrofluorescein diacetate (H2-DCF-DA; Invitrogen, USA) as an ROS probe. Drug-resistant cells were treated with sorafenib (10 μM) and the DN200434 compound (12 μM) for 24 hours, and 10 μM H2-DCF-DA was added to the cells. Then, the cells were incubated for 30 minutes, and washed with PBS, and data was collected using a BD Accuri™ C6 flow cytometer (BD Bioscience, USA), and analyzed using an Accuri™ C6 analysis program (BD Bioscience, USA). To determine the number of cells, the sorafenib-resistant liver cancer cell line was treated with the DN200434 compound (12 μM) in combination with sorafenib (10 μM), and stained with trypan blue, and the number of cells was then measured using a hemocytometer.
# [5] = system: Huh7-R sorafenib-resistant liver cancer cell line; test: as above; assay type: cell-based; settings: FIG. 4A
# Experimental: as §3, §5
# [6] = system: sorafenib-resistant liver cancer cell line SK-Hep-R; test: Sorafenib-resistant liver cancer animal model (xenograft); assay type: in vivo, mice
# Experimental: as §3, §4
# An animal model derived from the sorafenib-resistant liver cancer cell line SK-Hep-R was constructed in the same manner as described above, and the effect of co-administration of the DN200434 compound represented by Formula 1, which is an inverse agonist against ERRγ, and sorafenib was confirmed.
# [7] = system: Huh7-SR cell line; test: Cell death by sorafenib (annexin/PI FACS, cleaved caspase-3); assay type: cell-based; settings: Huh7-SR cells; FIGS. 1A to 1C
# Experimental: (§6) Hepatocarcinoma cell lines [Huh7 cells (Korea Cell Line Bank (KCLB) No. 60104), SK-Hep cells (ATCC® HTB-52™)] were continuously exposed to sorafenib (gradually increasing to 10 μM) to construct sorafenib-resistant liver cancer cell lines (Huh7-SR and SK-Hep-R cell lines). To evaluate the cancer cell death by FACS, first, a cancer cell line was incubated in FITC-bound annexin and propidium iodide (PI) for 15 minutes, and annexin and PI binding were then measured by flow cytometry to acquire data using a BD Accuri C6 flow cytometer (BD Biosciences) and analyzed with the Accuri C6 analysis program (BD Biosciences)/FlowJo software (FlowJo, LLC.). Cancer cell line death was evaluated using a cleaved caspase-3 antibody (Cell Signaling Technology).
# [8] = system: SK-Hep-R cell line; test: as above; assay type: cell-based; settings: SK-Hep-R cells; FIGS. 1A to 1C
# Experimental: as §6
# [9] = DN200434 12 μM in combination with sorafenib 10 μM
SMILES,ROS [1],ROS [2],"body weight change ([3]; in combination with sorafenib vs sorafenib-alone control, FIG. 5D)","tumor size ([3]; in combination with sorafenib, compared to sorafenib-alone control, FIG. 5A)","tumor weight ([3]; in combination with sorafenib, compared to sorafenib-alone control, FIG. 5B)","tumor volume ([3]; in combination with sorafenib, compared to sorafenib-alone control, FIG. 5C)","cell proliferation [4, 9]","cell proliferation [5, 9]","body weight change ([6]; in combination with sorafenib vs sorafenib-alone control, FIG. 6D)","tumor size ([6]; in combination with sorafenib, compared to sorafenib-alone control, FIG. 6A)","tumor weight ([6]; in combination with sorafenib, compared to sorafenib-alone control, FIG. 6B)","tumor volume ([6]; in combination with sorafenib, compared to sorafenib-alone control, FIG. 6C)",cell proliferation ([4]; sorafenib alone),cell proliferation ([5]; sorafenib alone),cell death by sorafenib [7],cell death by sorafenib [8]
CC(C)N1CCN(c2ccc(/C(=C(/CCCO)c3ccccc3)c3ccc(O)cc3)cc2)CC1 [DN200434],increase,increase,no difference,significantly decreased,significantly decreased,significantly decreased,significantly decreased,significantly decreased,no difference,remarkably decreased,remarkably decreased,remarkably decreased,,,,
"CNC(=O)c1cc(Oc2ccc(NC(=O)Nc3ccc(Cl)c(C(F)(F)F)c3)cc2)ccn1 [sorafenib, reference compound]",,,,,,,,,,,,,not affected,not affected,did not increase,did not increase
